From a melting point compilation (Tetko et al.; mined from patent text by program, amines drawn as free bases though some values may be those of a salt)

Row | SMILES | melting point [°C]
1 | CCCS(=O)(=O)c1sc(C(N)=O)c2c1-c1c(cnn1CC(F)(F)F)CC2 | 141 to 142
2 | Cc1cc(C)c2c(c1)[C@H]1CN(C)CC[C@@H]1CC2=O (relative stereo) | > 250
3 | O=C1Cc2ccccc2Oc2ccccc2C1 | 86
4 | CN1CN(C(=O)c2c(F)cccc2F)C(=O)N(c2ccc(SC(F)F)cc2F)C1 | 135 to 137
5 | O=C(O)C1=CC2(CCSCC2)Oc2ccc([N+](=O)[O-])cc21 | 259 to 261
6 | COc1cc(OC)nc(Nc2cc(C)ccc2N)n1 | 128 to 129
7 | COCCOCCOCC(=O)Nc1cc(C(=O)O)cc([N+](=O)[O-])c1 | 136 to 137
8 | Cc1ncc(C(=O)NCc2cc(C(F)(F)F)cc(C(F)(F)F)c2)c(-c2ccccc2)n1 | 188 to 190
9 | O=C1C=NC(c2cccs2)(C(F)(F)F)O1 (configuration not stated) | 62 to 65
10 | NS(=O)(=O)c1ccc(NC(=O)NC23CC4CC(CC(C4)C2)C3)cc1 | 270 to 275
11 | O=C(Nc1ccc(-c2cnc(-c3ccc(NC(=O)c4cccnc4)cc3)[nH]2)cc1)c1cccnc1 | 317 to 319
12 | CCCOc1c(-c2cc(C=CC(=O)O)ccc2OC)cc(C(C)(C)C)cc1C(C)(C)C | 107 to 109
13 | COc1ccc(CN(C(=S)Nc2ccccc2)c2ccc(NNC(C)=O)cc2)cc1 | 126 to 128
14 | COc1c(OC(C)=O)ccc(C=O)c1[N+](=O)[O-] | 84 to 86
15 | O=C(CS)N[C@@H](CS)C(=O)O | 121
16 | c1ccc2c(c1)OCCc1c-2n(CCCN2CCCCC2)c2ccccc12 | 65 to 66
17 | O=C(Cn1ccnc1[N+](=O)[O-])c1cccnc1 | 125 to 127
18 | COC(C(=O)O)C(=O)Oc1cccc(-c2cn3c(n2)sc2ccccc23)c1 (configuration not stated) | 110 to 113
19 | N#CCc1cc(Cl)cc(Cc2nc3c(F)c(F)cc(F)c3s2)c1 | 114 to 117
20 | CCC(C)CNC(=O)c1ccc2c(c1)N(C(C)CN(C)CC)c1ccccc1S2 (mixture of isomers) | 95
21 | Cn1ccnc1S(=O)(=O)c1ccc(Cl)cc1 | 164 to 166
22 | O=Cc1[nH]ccc1-c1ccc(I)cc1 | 153 to 154
23 | CN1CCC(=C2c3ccccc3C=Cc3ccc(I)cc32)CC1 | 166 to 170
24 | C[C@]1(COC(=O)N2CCN(N=Cc3ccc(C(F)(F)F)cc3)CC2)Cn2cc([N+](=O)[O-])nc2O1 | 176 to 178

Row | SMILES | melting point [°C]
25 | Cc1cc(-c2nn(CC(C)C)c(=O)c(O)c2C)ccc1F | 107 to 110
26 | CC(C)(CO)NC(=O)CBr | 107 to 109
27 | Clc1ncnc(Cl)c1Oc1ccccc1 | 89 to 90
28 | COc1ccc2c(ccc3cc(OC)c(OC)c(OC)c32)c1 | 142 to 144
29 | CC(C)(C)NC(=O)NC1(C#N)CCC1 | 212 to 214
30 | Cn1c(CO)nc2cc(Br)cnc21 | 142 to 144
31 | Cc1oc2cc(C3CCNC(=O)C3)ccc2c1C (configuration not stated) | 195 to 197
32 | CC(=O)OC1CC(CO)OC1n1ccc(=O)[nH]c1=O (configuration not stated) | 148 to 149
33 | C=CCNC(=O)C1=C(C(=O)Nc2ccc(Br)cc2F)CCCC1 | 167 to 169
34 | Cc1c(N2CC(C)[C@@](N)(CF)C2)c(F)cc2c(=O)c(C(=O)O)cn([C@@H]3C[C@@H]3F)c12 (some centres not stated) | 200 to 203
35 | CC(C#N)NC(=O)NC(C)(C)C (configuration not stated) | 161 to 163
36 | C=CCSc1nnc(Cl)c(C)c1C | 51 to 53
37 | Nc1ccc(C(c2ccccc2)c2ccccc2)nc1 | 130 to 134
38 | CCCCc1ccc2c(n1)C(C(N)=S)CCC2 (configuration not stated) | 54 to 56
39 | CC(C)(C)OC(=O)CNC(=O)CC(C1CCCCC1)C1CCCCC1 | 72 to 74
40 | CC(Cl)C(CC(=O)c1ccccc1)[N+](=O)[O-] (configuration not stated) | 115 to 117
41 | C=C(CS(C)(=O)=O)C(=O)O | 147 to 149
42 | CCC(C)(C)NC(Nc1ccc2ncsc2c1)=C(C#N)S(C)(=O)=O | 112 to 114
43 | COc1cc(NC(C)=O)c2c(c1)OC(C)C2 (configuration not stated) | 104
44 | C=C1c2c(ccc(OC(C)=O)c2OC(C)=O)C(=O)N2CCCCC12 (configuration not stated) | 129 to 132
45 | COC(=O)c1cn2c(C)csc2n1 | 170 to 173
46 | Cc1c(N2C[C@@H](N)[C@@H](C(F)F)C2)c(F)cc2c(=O)c(C(=O)O)cn([C@@H]3C[C@@H]3F)c12 | 214 to 216
47 | CCCCCCCCCCCCCCSc1ccc(C(=O)O)o1 | 84 to 86
48 | CCOC(=O)C(=CNN(C)C)C(=O)c1cc(F)c(F)c(F)c1F | 81

The next lines start with the values.

Row | melting point [°C] | SMILES
49 | 131 to 132 | CCCNC(=O)Cc1ccc2ccn(C3CCN(CCc4ccc(F)cc4)CC3)c2c1
50 | 140 to 143 | CS(=O)(=O)CCNC(=O)c1cccc(-c2ccc3c(c2)C(Oc2ccc(Cl)cc2Cl)CC3)c1 (configuration not stated)
51 | 203 to 205 | CCCc1ccc2oc(C(=O)c3ccncc3)c(C)c2c1O
52 | 183 to 185 | CCC1c2ccccc2-c2sc(Br)cc2N1S(=O)(=O)c1ccc(O)cc1 (configuration not stated)
53 | 145 | O=C1c2nccc(Br)c2C(=O)c2c(-c3ccccc3NC(=O)C(F)(F)F)ccnc21
54 | 97 | OC(c1ccccc1)c1cc(Cl)ccc1CNC(=S)NCCc1ccccc1 (configuration not stated)
55 | 118 to 119 | NS(=O)(=O)c1ccc(C2=C(c3ccc(F)cc3)CC3(CCC3)C2)cc1
56 | 64 | Cc1ccc2cccc(OCc3c(Cl)ccc(S(=O)(=O)N4CCCC4C(=O)NCCCCCO)c3Cl)c2n1 (configuration not stated)
57 | 134 to 135 | OC/C=C/c1ccc(OCc2coc(-c3ccccc3)n2)c(F)c1
58 | 126 to 127 | O=C1CCC(=O)C1C(=O)CCc1ccc(Cl)c(Cl)c1
59 | 213 | CCOc1ccc2c(c1)n(C1CCCCC1)c(=O)n2S(=O)(=O)c1ccc(C(=O)Nc2nccs2)cc1OC
60 | 227 | O=C(O)COc1ccc(-c2ccc(=O)[nH]n2)cc1Cl
61 | 207 to 208 | Cc1ccc(S(=O)(=O)n2c(Br)cc(-c3ccc(F)cc3)c2-c2ccc(S(C)(=O)=O)cc2)cc1
62 | > 250 | O=C(O)c1cccc2c1CC(c1csc(-c3ccncc3)n1)C(=O)N2 (configuration not stated)
63 | 150 | CCCc1nc(SC(F)F)c(C(=O)O)n1Cc1ccc(-c2ccccc2S(=O)(=O)NC(=O)NCc2ccccc2)cc1
64 | 200 | CCC(Oc1ccc2nc(NC(=O)NCCN3CCOCC3)sc2c1)c1c(Cl)cccc1Cl (configuration not stated)
65 | 98 to 99 | CC(=O)N[C@@H](C)CO[C@H]1CC[C@H](n2cc3ccc(OCCC4CC4)cc3n2)CC1
66 | 128 to 129 | CC(c1ccc(-c2ccccc2)c(F)c1)c1csc(NS(C)(=O)=O)n1 (configuration not stated)
67 | 206 to 208 | O=C(Nc1nccs1)c1nc(-c2cccc3ccccc23)[nH]c1-c1ccc(Cl)cc1
68 | 258 to 260 | CC1CCCCC1C(=O)Nc1ccc(-c2ncc(-c3ccc(NC(=O)C4CCCCCC4)cc3)[nH]2)cc1 (configuration not stated)
69 | 221 | Cc1c(F)c(N2CCC(n3cc(-c4ccccc4)nn3)C2)c(F)c2c1c(=O)c(C(=O)O)cn2C1CC1 (configuration not stated)
70 | 73 to 78 | Nc1cccc(C(O)c2cc3c(Oc4ccc(Cl)cc4)cncc3s2)c1 (configuration not stated)
71 | 98 to 100 | CCOC(=O)c1c(C)cc2cnc(-c3ccccc3F)nc2c1C
72 | 174 to 176 | CCc1cc(C2(c3cccc(-c4cccnc4F)c3)N=C(N)N3CCCN=C32)cc(CC)n1 (configuration not stated)
